# Paper PMC6934184, “Selective DNA-PKcs inhibition extends the therapeutic index of localized radiotherapy and chemotherapy” (The Journal of Clinical Investigation, 2019)
# Target: T1, BMX (Homo sapiens, UniProt P51813)
# T1 construct: purchased Thermo Fisher Scientific (Life Technologies) SelectScreen
# Test: SelectScreen Z'LYTE
# Format: biochemical
# Summary of the method: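 Percent values come from Thermo SelectScreen profiling of NU5455, combining activity and binding assays. CSF1R was run in Z'LYTE format at Km app ATP, and CAMK1 in Adapta format with ATP listed at 10.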
# T1 sequence (P51813 whole entry): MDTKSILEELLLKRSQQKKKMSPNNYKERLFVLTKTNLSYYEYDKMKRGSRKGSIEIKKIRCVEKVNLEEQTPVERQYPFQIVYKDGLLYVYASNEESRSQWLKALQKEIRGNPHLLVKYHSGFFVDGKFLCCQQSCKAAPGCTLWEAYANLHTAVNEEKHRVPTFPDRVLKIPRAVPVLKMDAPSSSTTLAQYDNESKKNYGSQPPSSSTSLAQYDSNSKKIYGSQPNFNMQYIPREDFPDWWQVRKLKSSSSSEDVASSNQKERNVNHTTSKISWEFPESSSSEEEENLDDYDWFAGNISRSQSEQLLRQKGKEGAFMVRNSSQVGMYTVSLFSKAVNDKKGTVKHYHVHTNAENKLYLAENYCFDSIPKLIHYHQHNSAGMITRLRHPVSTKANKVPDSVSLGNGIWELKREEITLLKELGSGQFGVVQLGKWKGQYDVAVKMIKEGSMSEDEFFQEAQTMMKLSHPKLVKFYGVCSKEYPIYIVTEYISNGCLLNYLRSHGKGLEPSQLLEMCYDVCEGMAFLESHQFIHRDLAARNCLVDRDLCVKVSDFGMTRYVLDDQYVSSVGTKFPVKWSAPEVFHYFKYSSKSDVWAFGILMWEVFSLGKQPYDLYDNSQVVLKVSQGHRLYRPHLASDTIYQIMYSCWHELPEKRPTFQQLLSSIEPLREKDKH
compound,measurement,value
CN(C(=O)CN1CCOCC1)c1ccc2sc3c(-c4cccc5c(=O)cc(N6CC7CCC(C6)O7)oc45)cccc3c2c1 [NU5455],inhibition at 1 µM,4.4%
